Results taken from ChEMBL document CHEMBL1153924, “Synthesis and antibacterial activity of 4'',11-di-O-arylalkylcarbamoyl azithromycin derivatives” (2009).
≈ marks a conversion by molar mass, not a printed value.

What was measured:
Type in all cases: functional
Streptococcus pneumoniae [1] = experiment: Antibacterial activity against erythromycin-susceptible Streptococcus pneumoniae ATCC 49619 by broth microdilution method
Streptococcus pneumoniae [2] = experiment: Antibacterial activity against erythromycin-resistant Streptococcus pneumoniae B1 expressing erm gene by broth microdilution method
Streptococcus pneumoniae [3] = experiment: Antibacterial activity against erythromycin-resistant Streptococcus pneumoniae A22072 expressing mef gene by broth microdilution method
Streptococcus pneumoniae [4] = experiment: Antibacterial activity against erythromycin-resistant Streptococcus pneumoniae AB11 expressing erm and mef genes by broth microdilution method

Row | SMILES | MIC (Streptococcus pneumoniae [1]) | MIC (Streptococcus pneumoniae [2]) | MIC (Streptococcus pneumoniae [3]) | MIC (Streptococcus pneumoniae [4])
1 | CCCCCNC(=O)O[C@@H]1[C@@H](C)N(C)C[C@H](C)C[C@@](C)(O)[C@H](O[C@@H]2O[C@H](C)C[C@H](N(C)C)[C@H]2O)[C@@H](C)[C@H](O[C@H]2C[C@@](C)(OC)[C@@H](OC(=O)NCCc3ccccc3Cl)[C@H](C)O2)[C@@H](C)C(=O)O[C@H](CC)[C@@]1(C)O | < 0.03 µg/mL | 0.5 µg/mL (≈ 0.479 µM) | 0.5 µg/mL (≈ 0.479 µM) | 16 µg/mL (≈ 15.3 µM)
2 | CCCCCNC(=O)O[C@@H]1[C@@H](C)N(C)C[C@H](C)C[C@@](C)(O)[C@H](O[C@@H]2O[C@H](C)C[C@H](N(C)C)[C@H]2O)[C@@H](C)[C@H](O[C@H]2C[C@@](C)(OC)[C@@H](OC(=O)NCc3ccc(OC)cc3)[C@H](C)O2)[C@@H](C)C(=O)O[C@H](CC)[C@@]1(C)O | 0.06 µg/mL (≈ 0.0585 µM) | 0.5 µg/mL (≈ 0.488 µM) | 1 µg/mL (≈ 0.975 µM) | 32 µg/mL (≈ 31.2 µM)
3 | CC[C@H]1OC(=O)[C@H](C)[C@@H](O[C@H]2C[C@@](C)(OC)[C@@H](OC(=O)NCc3ccc(F)cc3)[C@H](C)O2)[C@H](C)[C@@H](O[C@@H]2O[C@H](C)C[C@H](N(C)C)[C@H]2O)[C@](C)(O)C[C@@H](C)CN(C)[C@H](C)[C@@H](OC(=O)NCCc2ccccc2)[C@]1(C)O | < 0.03 µg/mL | 0.25 µg/mL (≈ 0.239 µM) | 0.06 µg/mL (≈ 0.0573 µM) | 32 µg/mL (≈ 30.6 µM)
4 | CCCCNC(=O)O[C@@H]1[C@@H](C)N(C)C[C@H](C)C[C@@](C)(O)[C@H](O[C@@H]2O[C@H](C)C[C@H](N(C)C)[C@H]2O)[C@@H](C)[C@H](O[C@H]2C[C@@](C)(OC)[C@@H](OC(=O)NCc3ccc(OC)cc3)[C@H](C)O2)[C@@H](C)C(=O)O[C@H](CC)[C@@]1(C)O | 0.06 µg/mL (≈ 0.0593 µM) | 0.5 µg/mL (≈ 0.494 µM) | 1 µg/mL (≈ 0.989 µM) | 128 µg/mL (≈ 127 µM)
5 | CC[C@H]1OC(=O)[C@H](C)[C@@H](O[C@H]2C[C@@](C)(OC)[C@@H](OC(=O)NCc3ccc(F)cc3)[C@H](C)O2)[C@H](C)[C@@H](O[C@@H]2O[C@H](C)C[C@H](N(C)C)[C@H]2O)[C@](C)(O)C[C@@H](C)CN(C)[C@H](C)[C@@H](OC(=O)NCCc2ccccc2Cl)[C@]1(C)O | < 0.03 µg/mL | 0.25 µg/mL (≈ 0.231 µM) | 0.12 µg/mL (≈ 0.111 µM) | 2 µg/mL (≈ 1.85 µM)
6 | CC[C@H]1OC(=O)[C@H](C)[C@@H](O[C@H]2C[C@@](C)(OC)[C@@H](OC(=O)NCCc3ccc(O)cc3)[C@H](C)O2)[C@H](C)[C@@H](O[C@@H]2O[C@H](C)C[C@H](N(C)C)[C@H]2O)[C@](C)(O)C[C@@H](C)CN(C)[C@H](C)[C@H]2OC(=O)O[C@@]21C | < 0.03 µg/mL | 8 µg/mL (≈ 8.53 µM) | 1 µg/mL (≈ 1.07 µM) | 4 µg/mL (≈ 4.26 µM)
7 | CCCCNC(=O)O[C@@H]1[C@@H](C)N(C)C[C@H](C)C[C@@](C)(O)[C@H](O[C@@H]2O[C@H](C)C[C@H](N(C)C)[C@H]2O)[C@@H](C)[C@H](O[C@H]2C[C@@](C)(OC)[C@@H](OC(=O)NCCc3ccc(O)cc3)[C@H](C)O2)[C@@H](C)C(=O)O[C@H](CC)[C@@]1(C)O | < 0.03 µg/mL | 0.25 µg/mL (≈ 0.247 µM) | 1 µg/mL (≈ 0.989 µM) | 128 µg/mL (≈ 127 µM)
8 | CC[C@H]1OC(=O)[C@H](C)[C@@H](O[C@H]2C[C@@](C)(OC)[C@@H](OC(=O)NCCc3ccccc3Cl)[C@H](C)O2)[C@H](C)[C@@H](O[C@@H]2O[C@H](C)C[C@H](N(C)C)[C@H]2O)[C@](C)(O)C[C@@H](C)CN(C)[C@H](C)[C@H]2OC(=O)O[C@@]21C | < 0.03 µg/mL | 8 µg/mL (≈ 8.36 µM) | 0.25 µg/mL (≈ 0.261 µM) | 2 µg/mL (≈ 2.09 µM)
9 | CC[C@H]1OC(=O)[C@H](C)[C@@H](O[C@H]2C[C@@](C)(OC)[C@@H](OC(=O)NCCc3ccc(O)cc3)[C@H](C)O2)[C@H](C)[C@@H](O[C@@H]2O[C@H](C)C[C@H](N(C)C)[C@H]2O)[C@](C)(O)C[C@@H](C)CN(C)[C@H](C)[C@@H](OC(=O)NCc2ccccc2)[C@]1(C)O | < 0.03 µg/mL | 0.25 µg/mL (≈ 0.239 µM) | 0.12 µg/mL (≈ 0.115 µM) | 128 µg/mL (≈ 122 µM)
10 | CC[C@H]1OC(=O)[C@H](C)[C@@H](O[C@H]2C[C@@](C)(OC)[C@@H](OC(=O)NCc3ccc(OC)cc3)[C@H](C)O2)[C@H](C)[C@@H](O[C@@H]2O[C@H](C)C[C@H](N(C)C)[C@H]2O)[C@](C)(O)C[C@@H](C)CN(C)[C@H](C)[C@H]2OC(=O)O[C@@]21C | < 0.03 µg/mL | 8 µg/mL (≈ 8.53 µM) | 0.25 µg/mL (≈ 0.266 µM) | 16 µg/mL (≈ 17.1 µM)
11 | CC[C@H]1OC(=O)[C@H](C)[C@@H](O[C@H]2C[C@@](C)(OC)[C@@H](OC(=O)NCCc3ccccc3Cl)[C@H](C)O2)[C@H](C)[C@@H](O[C@@H]2O[C@H](C)C[C@H](N(C)C)[C@H]2O)[C@](C)(O)C[C@@H](C)CN(C)[C@H](C)[C@@H](OC(=O)NCCc2ccc(O)cc2)[C@]1(C)O | < 0.03 µg/mL | 0.25 µg/mL (≈ 0.229 µM) | 0.06 µg/mL (≈ 0.0549 µM) | 16 µg/mL (≈ 14.6 µM)
12 | CC[C@H]1OC(=O)[C@H](C)[C@@H](O[C@H]2C[C@@](C)(OC)[C@@H](OC(=O)NCCc3ccccc3Cl)[C@H](C)O2)[C@H](C)[C@@H](O[C@@H]2O[C@H](C)C[C@H](N(C)C)[C@H]2O)[C@](C)(O)C[C@@H](C)CN(C)[C@H](C)[C@@H](OC(=O)NCc2ccc(F)cc2)[C@]1(C)O | 0.06 µg/mL (≈ 0.0555 µM) | 0.25 µg/mL (≈ 0.231 µM) | 0.25 µg/mL (≈ 0.231 µM) | 4 µg/mL (≈ 3.7 µM)
13 | CC[C@H]1OC(=O)[C@H](C)[C@@H](O[C@H]2C[C@@](C)(OC)[C@@H](OC(=O)NCc3ccc(F)cc3)[C@H](C)O2)[C@H](C)[C@@H](O[C@@H]2O[C@H](C)C[C@H](N(C)C)[C@H]2O)[C@](C)(O)C[C@@H](C)CN(C)[C@H](C)[C@H]2OC(=O)O[C@@]21C | < 0.03 µg/mL | 8 µg/mL (≈ 8.64 µM) | 0.06 µg/mL (≈ 0.0648 µM) | 4 µg/mL (≈ 4.32 µM)
14 | CC[C@H]1OC(=O)[C@H](C)[C@@H](O[C@H]2C[C@@](C)(OC)[C@@H](OC(=O)NCCc3ccc(O)cc3)[C@H](C)O2)[C@H](C)[C@@H](O[C@@H]2O[C@H](C)C[C@H](N(C)C)[C@H]2O)[C@](C)(O)C[C@@H](C)CN(C)[C@H](C)[C@@H](OC(=O)NCCc2ccccc2Cl)[C@]1(C)O | < 0.03 µg/mL | 0.25 µg/mL (≈ 0.229 µM) | 0.25 µg/mL (≈ 0.229 µM) | 16 µg/mL (≈ 14.6 µM)
15 | CC[C@H]1OC(=O)[C@H](C)[C@@H](O[C@H]2C[C@@](C)(OC)[C@@H](OC(=O)NCCc3ccccc3Cl)[C@H](C)O2)[C@H](C)[C@@H](O[C@@H]2O[C@H](C)C[C@H](N(C)C)[C@H]2O)[C@](C)(O)C[C@@H](C)CN(C)[C@H](C)[C@@H](OC(=O)NCc2ccccc2)[C@]1(C)O | < 0.03 µg/mL | 0.25 µg/mL (≈ 0.235 µM) | 0.25 µg/mL (≈ 0.235 µM) | 4 µg/mL (≈ 3.76 µM)
16 | CC[C@H]1OC(=O)[C@H](C)[C@@H](O[C@H]2C[C@@](C)(OC)[C@@H](O)[C@H](C)O2)[C@H](C)[C@@H](O[C@@H]2O[C@H](C)C[C@H](N(C)C)[C@H]2O)[C@](C)(O)C[C@@H](C)CN(C)[C@H](C)[C@@H](O)[C@]1(C)O [AZITHROMYCIN] | < 0.03 µg/mL | 128 µg/mL (≈ 171 µM) | 4 µg/mL (≈ 5.34 µM) | 256 µg/mL (≈ 342 µM)
17 | CC[C@H]1OC(=O)[C@H](C)[C@@H](O[C@H]2C[C@@](C)(OC)[C@@H](O)[C@H](C)O2)[C@H](C)[C@@H](O[C@@H]2O[C@H](C)C[C@H](N(C)C)[C@H]2O)[C@](C)(OC)C[C@@H](C)C(=O)[C@H](C)[C@@H](O)[C@]1(C)O [CLARITHROMYCIN] | < 0.03 µg/mL | 64 µg/mL (≈ 85.6 µM) | 4 µg/mL (≈ 5.35 µM) | 128 µg/mL (≈ 171 µM)
